Target: Aβ42 (Homo sapiens, UniProt P05067)
Test: Th-T (thioflavin-T) assay of Aβ42 aggregation
Type: biochemical
Settings: for Th-T assay plate reading, mean of three wells (Supplementary Fig. 47): source data, Ab alone and No Ab as controls

Chain of Aβ42 (P05067 672-713): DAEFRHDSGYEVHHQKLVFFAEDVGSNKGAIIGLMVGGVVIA

Th-T fluorescence, mean of three wells (Aβ42 aggregation time course, reading M117): 2.792 | Th-T fluorescence, mean of three wells (Aβ42 aggregation time course, reading M118): 2.807 | Th-T fluorescence, mean of three wells (Aβ42 aggregation time course, reading M119): 2.796 | Th-T fluorescence, mean of three wells (Aβ42 aggregation time course, reading M120): 2.799 | Th-T fluorescence, mean of three wells (Aβ42 aggregation time course, reading M121): 2.791 | Th-T fluorescence, mean of three wells (Aβ42 aggregation time course, reading M122): 2.801 | Th-T fluorescence, mean of three wells (Aβ42 aggregation time course, reading M123): 2.8089 | Th-T fluorescence, mean of three wells (Aβ42 aggregation time course, reading M124): 2.764 | Th-T fluorescence, mean of three wells (Aβ42 aggregation time course, reading M125): 2.798 | Th-T fluorescence, mean of three wells (Aβ42 aggregation time course, reading M126): 2.7918 | Th-T fluorescence, mean of three wells (Aβ42 aggregation time course, reading M127): 2.782 | Th-T fluorescence, mean of three wells (Aβ42 aggregation time course, reading M128): 2.756 | Th-T fluorescence, mean of three wells (Aβ42 aggregation time course, reading M129): 2.788 | Th-T fluorescence, mean of three wells (Aβ42 aggregation time course, reading M130): 2.772 | Th-T fluorescence, mean of three wells (Aβ42 aggregation time course, reading M131): 2.794 | Th-T fluorescence, mean of three wells (Aβ42 aggregation time course, reading M132): 2.756 | Th-T fluorescence, mean of three wells (Aβ42 aggregation time course, reading M133): 2.787 | Th-T fluorescence, mean of three wells (Aβ42 aggregation time course, reading M134): 2.786 | Th-T fluorescence, mean of three wells (Aβ42 aggregation time course, reading M135): 2.766 | Th-T fluorescence, mean of three wells (Aβ42 aggregation time course, reading M136): 2.788 | Th-T fluorescence, mean of three wells (Supplementary Fig. 47, reading M137): 2.782 | Th-T fluorescence, mean of three wells (Supplementary Fig. 47, reading M138): 2.781 | Th-T fluorescence, mean of three wells (Supplementary Fig. 47, reading M139): 2.778 | Th-T fluorescence, mean of three wells (Supplementary Fig. 47, reading M140): 2.777 | Th-T fluorescence, mean of three wells (Supplementary Fig. 47, reading M141): 2.762 | Th-T fluorescence, mean of three wells (Supplementary Fig. 47, reading M142): 2.77 | Th-T fluorescence, mean of three wells (Supplementary Fig. 47, reading M143): 2.794 | Th-T fluorescence, mean of three wells (Supplementary Fig. 47, reading M144): 2.791 | Th-T fluorescence, mean of three wells (Supplementary Fig. 47, reading M145): 2.767 | Th-T assay plate reading, mean of three wells (Supplementary Fig. 47) (measurement M1): 0.2408 | Th-T assay plate reading, mean of three wells (Supplementary Fig. 47) (measurement M2): 0.2372 | Th-T assay plate reading, mean of three wells (Supplementary Fig. 47) (measurement M3): 0.2484 | Th-T assay plate reading, mean of three wells (Supplementary Fig. 47) (measurement M4): 0.2764 | Th-T assay plate reading, mean of three wells (Supplementary Fig. 47) (measurement M5): 0.3211 | Th-T assay plate reading, mean of three wells (Supplementary Fig. 47) (measurement M6): 0.3818 | Th-T assay plate reading, mean of three wells (Supplementary Fig. 47) (measurement M7): 0.386 | Th-T assay plate reading, mean of three wells (Supplementary Fig. 47) (measurement M8): 0.4241 | Th-T assay plate reading, mean of three wells (Supplementary Fig. 47) (measurement M9): 0.4754 | Th-T assay plate reading, mean of three wells (Supplementary Fig. 47) (measurement M10): 0.5222 | Th-T assay plate reading, mean of three wells (Supplementary Fig. 47) (measurement M11): 0.5741 | Th-T assay plate reading, mean of three wells (Supplementary Fig. 47) (measurement M12): 0.6179 | Th-T assay plate reading, mean of three wells (Supplementary Fig. 47) (measurement M13): 0.6443 | Th-T assay plate reading, mean of three wells (Supplementary Fig. 47) (measurement M14): 0.6952 | Th-T assay plate reading, mean of three wells (Supplementary Fig. 47) (measurement M15): 0.7748 | Th-T assay plate reading, mean of three wells (Supplementary Fig. 47) (measurement M16): 1.021 | Th-T fluorescence, mean of three wells (reading M17, Supplementary Fig. 47 source data): 1.394 | Th-T fluorescence, mean of three wells (time-course reading M97, Supplementary Fig. 47 source data): 2.816 | Th-T fluorescence, mean of three wells (time-course reading M98, Supplementary Fig. 47 source data): 2.842 | Th-T fluorescence, mean of three wells (time-course reading M99, Supplementary Fig. 47 source data): 2.834 | Th-T fluorescence, mean of three wells (time-course reading M100, Supplementary Fig. 47 source data): 2.825 | Th-T fluorescence, mean of three wells (time-course reading M101, Supplementary Fig. 47 source data): 2.818 | Th-T fluorescence, mean of three wells (time-course reading M102, Supplementary Fig. 47 source data): 2.832 | Th-T fluorescence, mean of three wells (time-course reading M103, Supplementary Fig. 47 source data): 2.816 | Th-T fluorescence, mean of three wells (time-course reading M104, Supplementary Fig. 47 source data): 2.8075 | Th-T fluorescence, mean of three wells (time-course reading M105, Supplementary Fig. 47 source data): 2.8016 | Th-T fluorescence, mean of three wells (time-course reading M106, Supplementary Fig. 47 source data): 2.808 | Th-T fluorescence, mean of three wells (time-course reading M107, Supplementary Fig. 47 source data): 2.794 | Th-T fluorescence, mean of three wells (time-course reading M108, Supplementary Fig. 47 source data): 2.811 | Th-T fluorescence, mean of three wells (time-course reading M109, Supplementary Fig. 47 source data): 2.783 | Th-T fluorescence, mean of three wells (time-course reading M110, Supplementary Fig. 47 source data): 2.799 | Th-T fluorescence, mean of three wells (time-course reading M111, Supplementary Fig. 47 source data): 2.807 | Th-T fluorescence, mean of three wells (time-course reading M112, Supplementary Fig. 47 source data): 2.812 | Th-T fluorescence, mean of three wells (time-course reading M113, Supplementary Fig. 47 source data): 2.81 | Th-T fluorescence, mean of three wells (time-course reading M114, Supplementary Fig. 47 source data): 2.8 | Th-T fluorescence, mean of three wells (time-course reading M115, Supplementary Fig. 47 source data): 2.812 | Th-T fluorescence, mean of three wells (time-course reading M116, Supplementary Fig. 47 source data): 2.796
Compound: C=C1CCC2C(C)(CCC=C(C)C)C(O)CCC2(C)C1Cc1c(O)c(C)c(C)oc1=O (stereo not drawn) [Compound 9, higginsianin B]

Reference: paper PMC7156458, “Synthetic biology based construction of biological activity-related library of fungal decalin-containing diterpenoid pyrones” (Nature Communications, 2020)
